Measured values: US6365633B1, “Method of treating eating disorders” (Knoll Pharmaceutical Company, priority 1999, dated 2002)

Tests used:
[1] = target: [3H]Noradenaline reuptake in rat brain tissue; assay: in vitro [3H]noradrenaline reuptake inhibition in rat brain tissue; assay type: biochemical; details: means of ≧3 separate determinations
[2] = target: [3H]Dopamine reuptake in rat brain tissue; assay: in vitro [3H]dopamine reuptake inhibition in rat brain tissue; assay type: biochemical; details: means of ≧3 separate determinations

Structure (SMILES)	Ki [1] [nM]	Ki [2] [nM]
COc1ccc(C(CN(C)C)C2(O)CCCCC2)cc1 (stereo not shown) [Venlafaxine]	196	2590
CC(NC(C)(C)C)C(=O)c1cccc(Cl)c1 (stereo not shown) [Bupropion]	2590	409
